The subject of assay [1] is FGF1.A promoter. Nature of the assay: FGF1.A promoter luciferase reporter. The format is cell-based, murine. To be noted: sJ1 NIH 3T3 cell transfectants versus insert-less vector. The protocol:
In order to confirm the sJ1-dependent function of the FGF1.A promoter, the corresponding 1.8 Kbp region (Madiai et al., 1999, J. Biol. Chem. 274:11937-11944) was cloned into a promoter-less firefly luciferase reporter vector and FGF1.A-driven firefly luciferase activity was evaluated in both insert-less vector and sJ1 NIH 3T3 cell transfectants.
A general note: A reporter such as luciferase makes a cellular process visible.

Assay [2] deals with FGF1 transcript. Nature of the assay: Nuclear run-on analysis of FGF1 transcription. The assay is classed as cell-based, murine. As to the method: Approximately either 1×10^7 Swiss or NIH 3T3 cells were harvested and washed using ice-cold 50 mM sodium phosphate buffer, pH 7.0 containing 15 mM NaCl. Cell pellets were lysed in 4 ml of ice-cold 10 mM Tris-HCl, pH 7.5, containing 3 mM CaCl2, 3 mM MgCl2, 10 mM NaCl, and 0.5 % NP-40. The nuclear pellet was resuspended in glycerol storage buffer (50 mM Tris-HCl, pH 8.3 containing 40% glycerol, 5 mM MgCl2 and 0.1 mM EDTA), the nuclei were snap frozen, and stored in liquid nitrogen. For run-on transcription, 200 μl aliquots of the frozen nuclei were added to 200 μl of reaction buffer (10 mM Tris-HCl, pH 8.3 containing 5 mM MgCl2, 300 mM KCl, 5 mM DTT, 1 mM each of ATP, CTP, and GTP, 40 units of RNase inhibitor and 100 μCi of [^32P]UTP (800 Ci/mmol; Amersham), and incubated at 30° C. for 30 minutes. The mixture was treated with 100 units of RNase-free DNase I for 30 minutes at 30° C. and then incubated with 400 μl of 20 mM Tris-HCl, pH 7.5, containing 2% SDS, 10 mM EDTA, […] proteinase K for 30 minutes at 42° C. Following phenol/CHCl3 extraction, the labelled transcripts were precipitated with isopropanol and dissolved in 50 μl of 10 mM TES, pH 7.5, containing 10 mM EDTA and 0.2% SDS. Linearized plasmid constructs (0.4 μg/dot) containing either the fgf1 or gapdh cDNA were alkali denatured and immobilized onto a Hybond-N^+ membrane (Amersham). Hybridization was performed in 1 ml of ULTRA Hyb (Ambion), with 5×10^6 cpm of radiolabeled RNA and yeast RNA (10 μg/ml) for 18 hours with shaking at 50° C. Membranes were washed twice with washing buffer (2×SSC containing 0.1% SDS) at 50° C. and analyzed using a phosphoimager (Molecular Dynamics).

The subject of assay [3] is PAR1 null cells. Nature of the assay: FGF1 release from PAR1 null cells. The format is cell-based, mouse. To be noted: 10 μg/ml α-thrombin, 5 and 60 minutes. As to the method: Murine NIH 3T3 (ATCC), Swiss 3T3 (ATCC), sJ1 NIH 3T3 cell transfectants were all disclosed elsewhere herein (e.g., Example 1), FGF1 NIH 3T3 transfectants (Jackson et al., 1992, Proc. Natl. Acad. Sci. U.S.A. 89:10691-10695) and PAR1 null mouse embryonic fibroblasts (a gift from Dr. S. Coughlin) were grown in Dulbecco's modified Eagle's medium (DMEM; Life Technologies) supplemented with 10% bovine calf serum (BCS; Hyclone) and 1× antibiotic/antimycotic (Life Technologies). All stable NIH 3T3 cell transfectant cultures were further supplemented with 0.4 g/L Geneticin (GIBCO). […]
FGF1R136K NIH 3T3 cell transfectants or adenovirally-transduced NIH 3T3 cells were washed with DMEM containing 5 units/ml of heparin (Sigma) and stimulated with either 10 μg/ml α-thrombin (a gift from Dr. J. Fenton) or 5 μM TRAP (Sigma) at 37° C. for different periods of time. […] Cell viability was assessed by measuring lactate dehydrogenase activity in the conditioned medium after filtration as disclosed previously elsewhere herein (published as Mandinova et al., 2003, J. Cell Sci. 116:2687-2696), and total cell lysates were obtained and processed for immunoblot analysis as described (Landriscina et al., 2001, J. Biol. Chem. 276:22544-22552). […]

The values that follow come from patent US20060084599A1, “Compositions, methods and kits relating to notch signaling” (Maine Medical Center, priority 2003, published 2006).

Turning to “sJ1: Soluble Jagged1, amino acid residues about 1 to 1067 (SEQ ID NO:3) of full-length human Jagged1”, the FGF1.A-driven promoter activity result in assay [1] is recorded as “significant increase in the FGF1.A-driven promoter activity”.

Take thrombin: the “induction of FGF1 transcript” value in assay [2] (10 μg/ml α-thrombin or 5 μM TRAP) is “able to induce the expression of the FGF1 transcript”. Moreover, in assay [2] (NIH 3T3 and Swiss 3T3 cells), the “time at which FGF1 mRNA reached a plateau” value stood at 2 h and the “time at which FGF1 mRNA was initially detected” value was 15 min. In assay [3], the “export of FGF1R136K from PAR1 null cells” value is recorded as “unable to induce the export of the FGF1R136K mutant”.
